The values that follow come from patent US8779142B2, “Azabicyclo compound and salt thereof” (Taiho Pharmaceutical Co., Ltd., priority 2009, dated 2014).

Read-outs that look alike come from different tables or passages of the source.

One experiment relates to SK-BR-3 cells. Kind of experiment: Measurement of cell growth inhibition (crystal violet staining method). It is filed as cell-based.
The target in experiment [1] is human HSP90 alpha protein (HSP90 N-terminal protein, amino acids 2-236) (Homo sapiens (Human), UniProt P07900). Nature of the experiment: Measurement of HSP90-binding activity (AlphaScreen competitive assay, biotin-labeled geldanamycin). The settings on record: read-out: HSP-binding activity IC50. In general terms: Bead proximity is the source of the signal in Alpha formats.

Where [2] appears, read: Homo sapiens, breast cancer SK-BR-3 cells, 72 hr culture with test substance.
[3] abbreviates: concentration inhibiting binding of biotin-labeled geldanamycin (40 nM) to purified HSP90 to 50% of control.
The mark [4] stands for this setting: breast cancer SK-BR-3 cells, 72 hr culture with test substance.

The IC50 is the concentration that inhibits the measured activity by half. Turning to `CC(C)c1nn(-c2ccc(C(N)=O)cc2Cl)c2nccc(-n3cnc(-c4ccc(C(N)=O)cc4)c3)c12` [Example 152, 4-{4-(4-(4-Carbamoylphenyl)-1H-imidazol-1-yl)-3-isopropyl-1H-pyrazolo[3,4-b]pyridin-1-yl}-3-chlorobenzamide], the values for the IC50 (with SK-BR-3 cells (setting [2]); in experiment [1] (setting [3])) were 1.28 µM and 1.01 µM, respectively.

With `CC(C)c1nn(-c2ccc(C(N)=O)c(NC3CCC(O)CC3)c2)c2nccc(-n3cnc(-c4cnn(CO)c4)c3)c12` (stereo not drawn) [Example 96, 2-(4-Hydroxycyclohexylamino)-4-{4-(4-(1-hydroxymethyl)-(1H-pyrazol-4-yl)-1H-imidazol-1-yl)-3-isopropyl-1H-pyrazolo[3,4-b]pyridin-1-yl}benzamide], the IC50 (in the experiment with SK-BR-3 cells (setting [4]); in experiment [1] (setting [3])) was 0.06 µM throughout.

On to `CC(C)c1nn(-c2ccc(C(N)=O)c(N(O)C3CCCCC3)c2)c2nccc(-n3cnc(-c4cnn(Cc5ccccc5)c4)c3)c12` [Example 93, 2-(Hydroxycyclohexylamino)-4-{3-isopropyl-4-(4-(1-benzyl-1H-pyrazol-4-yl)-1H-imidazol-1-yl)-1H-pyrazolo[3,4-b]pyridin-1-yl}benzamide], for which the IC50 with SK-BR-3 cells (setting [2]) is 0.07 µM; in experiment [1] (setting [3]), 0.32 µM.

Consider `Cc1cn(-c2ccc(C(N)=O)c(NCC(C)(C)O)c2)c2nccc(-c3cnc4ccccc4c3)c12` [Example 58, 2-(2-Hydroxy-2-methylpropylamino)-4-{3-methyl-4-(quinolin-3-yl)-1H-pyrrolo[2,3-b]pyridin-1-yl}benzamide], for which the IC50 turned out to be 0.21 µM in the experiment on SK-BR-3 cells (setting [2]) and 0.46 µM in experiment [1] (setting [3]).

For the molecule `CC(C)Nc1cc(-n2nc(C(F)(F)F)c3c(-n4cnc(-c5cccnc5)c4)ccnc32)ccc1C(N)=O` [Example 179, 2-(Isopropylamino)-4-{4-(4-(pyridin-3-yl)-1H-imidazol-1-yl)-3-(trifluoromethyl)-1H-pyrazolo[3,4-b]pyridin-1-yl}benzamide], the results for the IC50 (in the experiment on SK-BR-3 cells (setting [2]); in experiment [1] (setting [3])) were 0.07 µM and 0.38 µM, respectively.

As to `CC(C)Nc1cc(C(N)=O)ccc1-n1nc(C(C)C)c2c(-n3cnc(-c4cnn(C)c4)c3)ccnc21` [Example 120, 4-{3-Isopropyl-4-(4-(1-methyl-1H-pyrazol-4-yl)-1H-imidazol-1-yl)-1H-pyrazolo[3,4-b]pyridin-1-yl}-3-(isopropylamino)benzamide], the half-inhibitory concentration (IC50) in the experiment with SK-BR-3 cells (setting [2]) amounted to 0.14 µM; in experiment [1] (setting [3]), 0.2 µM.

Turning to `CC(C)c1nn(-c2ccc(C(N)=O)c(NC3CCN(C(=O)CN)CC3)c2)c2nccc(-c3cnc4ccccc4c3)c12` [Example 79, 2-{1-(2-Aminoacetyl)piperidin-4-ylamino}-4-{3-isopropyl-4-(quinolin-3-yl)-1H-pyrazolo[3,4-b]pyridin-1-yl}benzamide], the IC50 is 0.02 µM with SK-BR-3 cells (setting [2]) and 0.25 µM in experiment [1] (setting [3]).

With `CC(C)c1nn(-c2ccc(C(N)=O)c(NC(C)(C)C)c2)c2nccc(-n3cnc(-c4cccnc4)c3)c12` [Example 141, 2-(Tert-butylamino)-4-{3-isopropyl-4-(4-(pyridin-3-yl)-1H-imidazol-1-yl)-1H-pyrazolo[3,4-b]pyridin-1-yl}benzamide], the IC50 in the experiment on SK-BR-3 cells (setting [2]) is 0.14 µM; in experiment [1] (setting [3]), 0.41 µM.

As for `CC(C)c1nn(-c2ccc(C(N)=O)c(NCCCN(C)C)c2)c2nccc(-c3cnc4ccccc4c3)c12` [Example 29, 2-{3-(Dimethylamino)propylamino}-4-{3-isopropyl-4-(quinolin-3-yl)-1H-pyrazolo[3,4-b]pyridin-1-yl}benzamide], the IC50 in the experiment with SK-BR-3 cells (setting [2]) worked out at 0.24 µM; in experiment [1] (setting [3]) it was 0.32 µM.

In the case of `CC(C)c1nn(-c2ccc(C(N)=O)cc2CN(C)C)c2nccc(-n3cnc(-c4cnn(C)c4)c3)c12` [Example 126, 3-{(Dimethylamino)methyl}-4-{3-isopropyl-4-(4-(1-methyl-1H-pyrazol-4-yl)-1H-imidazol-1-yl)-1H-pyrazolo[3,4-b]pyridin-1-yl}benzamide], the IC50 was 1.13 µM in the experiment on SK-BR-3 cells (setting [2]) and 0.23 µM in experiment [1] (setting [3]).

For the molecule `NC(=O)c1ccc(-n2nc(C(F)(F)F)c3c(-n4cnc(-c5cccnc5)c4)ccnc32)c(NC2CCCC2)c1` [Example 183, 3-(Cyclopentylamino)-4-{4-(4-(pyridin-3-yl)-1H-imidazol-1-yl)-3-(trifluoromethyl)-1H-pyrazolo[3,4-b]pyridin-1-yl}benzamide], the IC50 in the experiment on SK-BR-3 cells (setting [2]) stood at 0.15 µM; in experiment [1] (setting [3]), 0.33 µM.

Take `CC(C)Nc1cc(C(N)=O)ccc1-n1nc(C(F)(F)F)c2c(-n3cnc(-c4cnn(C)c4)c3)ccnc21` [Example 164, 3-(Isopropylamino)-4-{4-(4-(1-methyl-1H-pyrazol-4-yl)-1H-imidazol-1-yl)-3-(trifluoromethyl)-1H-pyrazolo[3,4-b]pyridin-1-yl}benzamide]: the half-inhibitory concentration (IC50) in the experiment with SK-BR-3 cells (setting [2]) turned out to be 0.07 µM; in experiment [1] (setting [3]) it was 0.11 µM.

Turning to `Cc1cn(-c2ccc(C(N)=O)c(N[C@@H]3CCCC[C@H]3N)c2)c2nccc(-c3cnc4ccccc4c3)c12` (relative stereo) [Example 64, 2-(Trans-2-aminocyclohexylamino)-4-{3-methyl-4-(quinolin-3-yl)-1H-pyrrolo[2,3-b]pyridin-1-yl}benzamide], the IC50 was determined as 0.59 µM in the experiment on SK-BR-3 cells (setting [2]) and 0.42 µM in experiment [1] (setting [3]).

Regarding `Cc1cn(-c2ccc(C(N)=O)c(NC3CCOCC3)c2)c2nccc(-c3cnc4ccccc4c3)c12` [Example 53, 2-(Tetrahydro-2H-pyran-4-ylamino)-4-{3-methyl-4-(quinolin-3-yl)-1H-pyrrolo[2,3-b]pyridin-1-yl}benzamide], the results for the IC50 (in the experiment with SK-BR-3 cells (setting [2]); in experiment [1] (setting [3])) were 0.2 µM and 0.35 µM, respectively.

As for `Cn1cc(-c2cn(-c3ccnc4c3c(C(F)(F)F)nn4-c3ccc(C(N)=O)cc3Cl)cn2)cn1` [Example 153, 3-Chloro-4-{4-(4-(1-methyl-1H-pyrazol-4-yl)-1H-imidazol-1-yl)-3-(trifluoromethyl)-1H-pyrazolo[3,4-b]pyridin-1-yl}benzamide], the IC50 came out at 0.24 µM in the experiment on SK-BR-3 cells (setting [2]) and 0.13 µM in experiment [1] (setting [3]).

For the molecule `CC(C)c1nn(-c2ccc(C(N)=O)c(NC3CCN(C)CC3)c2)c2nccc(-c3cnc4ccccc4c3)c12` [Example 24, 4-{3-Isopropyl-4-(quinolin-3-yl)-1H-pyrazolo[3,4-b]pyridin-1-yl}-2-(1-methylpiperidin-4-ylamino)benzamide], the 50% inhibitory concentration (IC50) with SK-BR-3 cells (setting [2]) amounted to 0.03 µM; in experiment [1] (setting [3]), 0.23 µM.

For the molecule `CCNc1cc(-n2nc(C(F)(F)F)c3c(-n4cnc(-c5cccnc5)c4)ccnc32)ccc1C(N)=O` [Example 178, 2-(Ethylamino)-4-{4-(4-(pyridin-3-yl)-1H-imidazol-1-yl)-3-(trifluoromethyl)-1H-pyrazolo[3,4-b]pyridin-1-yl}benzamide], the IC50 in the experiment on SK-BR-3 cells (setting [2]) came out at 0.08 µM; in experiment [1] (setting [3]), 0.53 µM.

With `Cc1cn(-c2ccc(C(N)=O)c(NCCCNC(C)C)c2)c2nccc(-c3cnc4ccccc4c3)c12` [Example 60, 2-[3-(Isopropylamino)propylamino]-4-{3-methyl-4-(quinolin-3-yl)-1H-pyrrolo[2,3-b]pyridin-1-yl}benzamide], the IC50 in the experiment on SK-BR-3 cells (setting [2]) came to 1.53 µM; in experiment [1] (setting [3]), 1.37 µM.

In the case of `Cn1cc(-c2cn(-c3ccnc4c3c(C(F)(F)F)nn4-c3ccc(C(N)=O)cc3C#N)cn2)cn1` [Example 169, 3-Cyano-4-{4-(4-(1-methyl-1H-pyrazol-4-yl)-1H-imidazol-1-yl)-3-(trifluoromethyl)-1H-pyrazolo[3,4-b]pyridin-1-yl}benzamide], the values for the IC50 (in the experiment with SK-BR-3 cells (setting [2]); in experiment [1] (setting [3])) were 0.27 µM and 0.23 µM, respectively.

For `CCCNc1cc(C(N)=O)ccc1-n1nc(C(C)C)c2c(-n3cnc(-c4cnn(C)c4)c3)ccnc21` [Example 122, 4-{3-Isopropyl-4-(4-(1-methyl-1H-pyrazol-4-yl)-1H-imidazol-1-yl)-1H-pyrazolo[3,4-b]pyridin-1-yl}-3-(propylamino)benzamide], the IC50 was 0.13 µM in the experiment with SK-BR-3 cells (setting [2]) and 0.18 µM in experiment [1] (setting [3]).

“2-(Trans-4-methylsulfonamidocyclohexylamino)-4-{3-methyl-4-(quinolin-3-yl)-1H-pyrrolo[2,3-b]pyridin-1-yl}benzamide [Example 63]”: the IC50 in the experiment on SK-BR-3 cells was determined as 0.17 µM; in experiment [1] it was 0.47 µM.

In the case of `Cc1cn(-c2ccc(C(N)=O)c(N[C@H]3CC[C@H](O)CC3)c2)c2nccc(-c3cnc4ccccc4c3)c12` [Example 40, 2-(Trans-4-hydroxycyclohexylamino)-4-{3-methyl-4-(quinolin-3-yl)-1H-pyrrolo[2,3-b]pyridin-1-yl}benzamide], the results for the IC50 (in the experiment on SK-BR-3 cells (setting [2]); in experiment [1] (setting [3])) were 0.09 µM and 0.27 µM, respectively.

As for `Cc1cc(C(N)=O)ccc1-n1nc(C(F)(F)F)c2c(-n3cnc(-c4cnn(C)c4)c3)ccnc21` [Example 154, 3-Methyl-4-{4-(4-(1-methyl-1H-pyrazol-4-yl)-1H-imidazol-1-yl)-3-(trifluoromethyl)-1H-pyrazolo[3,4-b]pyridin-1-yl}benzamide], the IC50 stood at 0.12 µM in the experiment with SK-BR-3 cells (setting [2]) and 0.14 µM in experiment [1] (setting [3]).

With `CCNc1cc(C(N)=O)ccc1-n1nc(C(F)(F)F)c2c(-n3cnc(-c4cnn(C)c4)c3)ccnc21` [Example 162, 3-(Ethylamino)-4-{4-(4-(1-methyl-1H-pyrazol-4-yl)-1H-imidazol-1-yl)-3-(trifluoromethyl)-1H-pyrazolo[3,4-b]pyridin-1-yl}benzamide], the IC50 in the experiment with SK-BR-3 cells (setting [2]) is 0.09 µM; in experiment [1] (setting [3]) it was 0.11 µM.

Consider `Cc1cc(C(N)=O)ccc1-n1nc(C(F)(F)F)c2c(-n3cnc(-c4cccnc4)c3)ccnc21` [Example 175, 3-Methyl-4-{4-(4-(pyridin-3-yl)-1H-imidazol-1-yl)-3-(trifluoromethyl)-1H-pyrazolo[3,4-b]pyridin-1-yl}benzamide], for which the IC50 with SK-BR-3 cells (setting [2]) turned out to be 0.29 µM; in experiment [1] (setting [3]), 0.37 µM.

In the case of `CC(C)c1nn(-c2ccc(C(N)=O)c(NC3CCC(O)CC3)c2)c2nccc(-n3cnc(-c4ccsc4)c3)c12` (stereo not drawn) [Example 91], the IC50 with SK-BR-3 cells (setting [4]) is 0.07 µM; in experiment [1] (setting [3]), 0.43 µM.

Regarding `CCNc1cc(-n2nc(C(C)C)c3c(-n4cnc(-c5cnn(C(F)F)c5)c4)ccnc32)ccc1C(N)=O` [Example 147, 4-{4-(4-(1-(Difluoromethyl)-1H-pyrazol-4-yl)-1H-imidazol-1-yl)-3-isopropyl-1H-pyrazolo[3,4-b]pyridin-1-yl}-2-(ethylamino)benzamide], the IC50 with SK-BR-3 cells (setting [2]) worked out at 0.36 µM; in experiment [1] (setting [3]), 0.81 µM.
